Measurements reported in patent publication US20010044445A1, “AZOLE INHIBITORS OF CYTOKINE PRODUCTION” (priority 1999, published 2001).
pIC50: −log10 of the molar value. Like-named read-outs stand apart in the source and are kept apart here. Blank lines part the entries; values can stand above or below the compound they belong to.

Key:
[1] = test system: Human peripheral blood mononuclear cells; assay: Human Concanavalin-A Proliferation Assay (Con HU Assay); format: cell-based; conditions: concanavalin-A stimulated human PBMC; for pIC50: tritiated thymidine; for inhibition at 10 µM: concentration 10 μm (in parentheses in the cell)
Summary of the method: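 Histopaque-isolated human PBMC (50,000/well) were pre-incubated 15 min with compounds, then stimulated with concanavalin-A at 2.5 μg/ml final for 3 days at 37 °C, 5% CO2. Proliferation measured by 6 h pulse with 0.5 μCi/well [3H]thymidine and beta counting.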

IL-2 = assay: CD3 and CD28 Activation of Peripheral Blood T Cells and Determination of Secreted IL-2 Levels (C28 HU Assay); format: cell-based, Human; conditions: PBMC stimulated with anti-CD3 and anti CD28 mAbs, 24 hour; for pIC50: IL-2 secretion; for inhibition at 100 µM: concentration 100 μM (in c2); for inhibition at 100 µM / inhibition at 1 µM: read-out: % Inhibition of IL-2 secretion (At concentrations of 1, 10, or 100 μM); for inhibition at 1 µM: concentration 1 μM (in c2)
Description: Human peripheral blood mononuclear cells were cultured in RPMI 1640 medium supplemented with 10 μg/ml gentamicin, 50 μM 2-mercaptoethanol, 1X MEM non-essential amino acids (Sigma Chemical Co., St. Louis, Mo.), 100 U/ml sodium penicillin G, 100 μg/ml streptomycin sulfate, 2 mM L-glutamine, 1 mM sodium pyruvate (Life Technologies, Grand Island, N.Y.) and 10% fetal bovine serum (Hyclone, Logan, Utah) at 37° C. with 5% CO2.
Human peripheral blood mononuclear cells (PBMC) were isolated by Ficoll-Hypaque seperation. PBMCs were stimulated with a combination of immobilized anti-CD3 and soluble anti CD28 mAbs as described in Faltynek, et al. J. Enzyme Inhibition 1995, 9, 111-122, hereby incorporated by reference. Following a 24 hour incubation, cell supernatants were harvested and IL-2 levels were determined. 100 μl of 5 μg/ml monoclonal murine anti-human IL-2 antibody (Biosource International) in D-PBS was added to 96 well Maxisorb plates (Nunc) and incubated at 4° C. overnight. Plates were washed 4 times with D-PBS containing 0.05% Tween 20 (wash buffer) and blocked with D-PBS containing 1% BSA and 10 mM NaN3 (Diluent/Blocking buffer) for 1-3 hours at room temperature or overnight at 4° C. Plates were washed and recombinant human IL-2 diluted (at 10,000, 5,000, 2,500, 1,250, 625, 312.5, 156.25, 78, 39, 20 pg/ml) in diluent/blocking buffer containing a matched percentage of complete RPMI 1640 medium as the unknown samples. Tissue culture supernatant at various dilutions were added in triplicate at 100 μl/well. Plates were incubated for 2 hours at room temperature and washed 4 times with wash buffer. 100 pl of rabbit anti-human IL-2 (10 μg/ml, Genzyme) was added and incubated for 1 hour at room temperature. The incubation was followed by 4 washes and subsequent addition of 100 pl of 1:2000 dilution of alkaline phosphatase-conjugated goat anti-rabbit F(ab′)2 (Biosource International). After 1 hour the plates were washed 4 times and 100 μl of pNPP (Southern Biotech or Sigma) at 1 mg/ml in buffer was added. Color development was allowed to proceed at room temperature for 20 minutes before addition of 50 μl of 2 N NaOH. Absorbance at 405 nm was determined using a plate reader (Molecular Devices). IL-2 concentrations were calcualted using SoftMax (Molecular Devices) based on the IL-2 standard solutions.

IL-4 = assay: Measurement of IL-4 Levels in Human T Cells (IL-4 Assay); format: cell-based; conditions: Human T cells (HUT 78), phorbol 12-myristate 13-acetate and anti-CD3, 32 hours, ELISA, read-out: IL-4 Inhibition IC50
Description: (§1) Measurement of IL-5 and IL-4 Levels in Human T Cells (IL-4 and IL-5 Assays) Human T cells (HUT 78) were cultured to 1×10^6/mL in RPMI 1640 medium containing 10% fetal calf serum, 100 U/mL penicillin and 100 μg/mL streptomycin. Cultures were then centrifuged, to pellet the cells, and cells resuspended in fresh medium to the same density. 0.2 mL samples of cells were incubated in 96-well plates with 8 μL of various concentrations of compound freshly diluted with the above medium from 100 mM solvent stocks (ethanol or DMSO). Immediately after addition of compound, cells were stimulated by addition of 2 ng/mL phorbol 12-myristate 13-acetate (1 μL of freshly prepared solution of stock (in DMSO) diluted with the above medium added to cells) and 750 μg/mL anti-CD3 (pre-coated at 4° C. overnight). Cell cultures were incubated at 37 OC for 32 hours, then cells pelleted by centrifugation and the supernatants harvested for ELISA. IL-4 and IL-5 ELISA's were performed according to standard procedures. Inhibition was calculated relative to cytokine levels produced from control stimulated cells not treated with compound.

IL-5 = assay: Measurement of IL-5 Levels in Human T Cells (IL-5 Assay); format: cell-based; conditions: Human T cells (HUT 78), phorbol 12-myristate 13-acetate and anti-CD3, 32 hours, ELISA, read-out: IL-5 Inhibition IC50
Description: as §1

[2] = concentration 100 μm (in parentheses in the cell), 3 days
[3] = Homo sapiens, PBMC, 72 h, 3 days, read-out: % Inhibition of proliferation (at concentrations of 1,10, or 100 μm)

Compound: Cc1noc(C)c1C(=O)Nc1ccc(-n2nc(C(F)(F)F)cc2C(F)(F)F)cc1 [Example 266, N-[4-[3,5-bis(trifluoromethyl)-1H-pyrazol-1-yl]phenyl]-3,5-dimethyl-4-isoxazolecarboxamide]
inhibition at 100 µM ([1]; Homo sapiens, PBMC, 72 h, concentration 100 μm (in parentheses in the cell), 3 days, read-out: % Inhibition of proliferation (at concentrations of 1,10, or 100 μm)): 100%
pIC50 ([1]; Homo sapiens, PBMC): 6.49
pIC50 (IL-2; Homo sapiens): 6.50
inhibition at 100 µM (IL-2; Homo sapiens): 88%
pIC50 (IL-4; HuT78): 6.96
pIC50 (IL-5; HuT78): 6.82
melting point: 179 to 180 °C

Compound: CC(C)(C)OC(=O)NCCCCCCC(=O)Nc1ccc(-n2nc(C(F)(F)F)cc2C(F)(F)F)cc1 [Example 64, 1,1-dimethylethyl [7-[[4-[3,5-bis(trifluoromethyl)-1H-pyrazol-1-yl]phenyl]amino]-7-oxoheptyl]carbamate]
pIC50 (IL-2; Homo sapiens): 4.65
inhibition at 100 µM (IL-2; Homo sapiens): 86%
melting point: 86 to 88 °C

Compound: O=C(Nc1ccc(-n2nc(C(F)(F)F)cc2C(F)(F)F)cc1)C1=CCCCC1 [Example 6, N-[4-[3,5-bis(trifluoromethyl)-1H-pyrazol-1-yl]phenyl]-1-cyclohexene-1-carboxamide]
inhibition at 10 µM [1, 3]: 100%
pIC50 ([1]; Homo sapiens, PBMC): 7.01
pIC50 (IL-4; HuT78): 8.10
pIC50 (IL-5; HuT78): 7.30
melting point: 146 to 148 °C

Compound: CCCCC(CC)C(=O)Nc1ccc(-n2nc(C(F)(F)F)cc2C(F)(F)F)cc1 (centres unmarked) [Example 72, N-[4-[3,5-bis(trifluoromethyl)-1H-pyrazol-1-yl]phenyl]-2-ethylhexanamide]
inhibition at 1 µM (IL-2; Homo sapiens): 11%
melting point: 127 to 128 °C

Compound: C=CC[C@@H]1/C=C(\C)C[C@H](C)C[C@H](OC)[C@H]2O[C@@](O)(C(=O)C(=O)N3CCCC[C@H]3C(=O)O[C@H](/C(C)=C/[C@@H]3CC[C@@H](O)[C@H](OC)C3)[C@H](C)[C@@H](O)CC1=O)[C@H](C)C[C@@H]2OC [FK-506, tacrolimus, reference compound]
pIC50 (IL-4; HuT78): 9.15
pIC50 (IL-5; HuT78): 9.30

Compound: Cc1nnsc1C(=O)Nc1ccc(-n2nc(C(F)(F)F)cc2C(F)(F)F)cc1 [Example 250, N-[4-[3,5-bis(trifluoromethyl)-1H-pyrazol-1-yl]phenyl]-4-methyl-1,2,3-thiadizole-5-carboxamide]
pIC50 [1]: 6.76
% Inhibition of proliferation (at concentrations of 1,10, or 100 μm) [1, 2]: 100(100) %
pIC50 (IL-2): 6.99
pIC50 (IL-4): 7.30
pIC50 (IL-5): 7.10

Compound: CCCCCCCNC(=O)Nc1ccc(-n2nc(C(F)(F)F)cc2C(F)(F)F)cc1 [Example 47, N-[4-[3,5-bis(trifluoromethyl)-1H-pyrazol-1-yl]phenyl]-N′-heptylurea]
inhibition at 1 µM (IL-2; Homo sapiens): 2%
melting point: 129 to 130 °C

Compound: O=C(CCC1CCCC1)Nc1ccc(-n2nc(C(F)(F)F)cc2C(F)(F)F)cc1 [Example 99, N-[4-[3,5-bis(trifluoromethyl)-1H-pyrazol-1-yl]phenyl]cyclopentanepropanamide]
inhibition at 1 µM (IL-2; Homo sapiens): 9%
melting point: 130 to 132 °C

Now from value to compound, other results behind:

pIC50 (IL-2): 6.42
pIC50 (IL-4): 6.82
pIC50 (IL-5): 6.82
Compound: O=C(Nc1ccc(Cl)cc1)c1ccc(-n2nc(C(F)(F)F)cc2C(F)(F)F)cc1 [Example 24, N-4-[3,5-bis(trifluoromethyl)-1H-pyrazol-1-yl]-N-(4-chlorophenyl)benzamide]
pIC50 [1]: 6.52
% Inhibition of proliferation (at concentrations of 1,10, or 100 μm) [1, 2]: 98(100) %

pIC50 (IL-4; HuT78): 8.30
pIC50 (IL-5; HuT78): 7.42
melting point: 147 to 149 °C
Compound: O=C(Nc1ccc(-n2nc(C(F)(F)F)cc2C(F)(F)F)cc1)c1cccc(F)c1F [Example 209, N-[4-[3,5-bis(trifluoromethyl)-1H-pyrazol-1-yl]phenyl]-2,3-difluorobenzamide]
inhibition at 10 µM [1, 3]: 99%
pIC50 ([1]; Homo sapiens, PBMC): 7.48

melting point: 156 to 158 °C
Compound: O=C(CCC(=O)c1ccc(F)cc1)Nc1ccc(-n2nc(C(F)(F)F)cc2C(F)(F)F)cc1 [Example 152, N-[4-[3,5-bis(trifluoromethyl)-1H-pyrazol-1-yl]phenyl]-4-fluoro-γ-oxobenzenebutanamide]
inhibition at 1 µM (IL-2; Homo sapiens): 3%

melting point: 163 to 164 °C
Compound: Cc1nnsc1C(=O)Nc1ccc(-n2nccc2C)cc1 [Example 285, 4-Methyl-N-[4-(5-methyl-1H-pyrazol-1-yl)phenyl]-1,2,3-thiadiazole-5-carboxamide]
inhibition at 1 µM (IL-2; Homo sapiens): 26%

melting point: 193 to 196 °C
Compound: Cc1c(Cl)cccc1NC(=O)Nc1ccc(-n2nc(C(F)(F)F)cc2C(F)(F)F)cc1 [Example 38, N-[4-[3,5-bis(trifluoromethyl)-1H-pyrazol-1-yl]phenyl]-N′-(3-chloro-2-methylphenyl)urea]
inhibition at 1 µM (IL-2; Homo sapiens): 16%

melting point: 179 to 182 °C
Compound: O=C(Nc1ccc(-n2nc(C(F)(F)F)cc2C(F)(F)F)cc1)c1ccco1 [Example 113, N-[4-[3,5-bis(trifluoromethyl)-1H-pyrazol-1-yl]phenyl]-2-furancarboxamide]
inhibition at 1 µM (IL-2; Homo sapiens): 19%

pIC50 (IL-4; HuT78): 8.32
pIC50 (IL-5; HuT78): 7.66
Compound: O=C(Nc1ccc(-n2nc(C(F)(F)F)cc2C(F)(F)F)cc1)c1ccncc1F [Example 264, N-[4-[3,5-bis(trifluoromethyl)-1H-pyrazol-1-yl]phenyl]-3-fluoro-4-pyridinecarboxamide]
inhibition at 10 µM [1, 3]: 100%
pIC50 ([1]; Homo sapiens, PBMC): 7.38

melting point: 151 to 152 °C
Compound: Cc1noc(C)c1C(=O)Nc1ccc(-n2nccc2C)cc1 [Example 286, 3,5-dimethyl-N-[4-(5-methyl-1H-pyrazol-1-yl)phenyl]-4-isoxazolecarboxamide]
inhibition at 1 µM (IL-2; Homo sapiens): 2%

melting point: > 230 °C
Compound: O=C(Nc1ccc(-n2nc(C(F)(F)F)cc2C(F)(F)F)cc1)c1cccs1 [Example 131, N-[4-[3,5-bis(trifluoromethyl)-1H-pyrazol-1-yl]phenyl]-2-thiophenecarboxamide]
inhibition at 1 µM (IL-2; Homo sapiens): 32%

melting point: 189 to 191 °C
Compound: Cc1ccnn1-c1ccc(NC(=O)c2ccc(Cl)cc2)cc1 [Example 284, 4-Chloro-N-[4-(5-methyl-1H-pyrazol-1-yl)phenyl]benzamide]
inhibition at 1 µM (IL-2; Homo sapiens): 17%
